The values below come from ChEMBL document CHEMBL4385620, “Inhibition of polypeptide N-acetyl-α-galactosaminyltransferases is an underlying mechanism of dietary polyphenols preventing colorectal tumorigenesis” (Bioorg Med Chem, 2019).

SMILES strings stand for the structures. The source made the active and inactive calls. No cut-off for these calls is given here.

One series relates to HT-29. The series is described as follows: Effect on ppGalNAcT15 expression level in human HT-29 cells at 40 uM incubated for 48 hrs by Q-PCR analysis. Conditions: ht-29, 48 h. The format is ADME, cell-based.
Series [1] concerns the target T1, Polypeptide N-acetylgalactosaminyltransferase 2 (Homo sapiens, UniProt Q10471). Description: Binding affinity of human recombinant FLAG-tagged ppGalNAcT2 expressed in HEK293 cells assessed as dissociation rate by SPR analysis. (In SPR one partner is held on a chip, and binding of the other changes the refractive index at the surface.)
Series [2] addresses T1, Polypeptide N-acetylgalactosaminyltransferase 2. Description: Inhibition of ppGalNAcT2 in human HT-29 cells assessed as reduction in PDPN O-GalNAc glycosylation by at 40 uM incubated for 48 hrs by jacalin lectin based immunoprecipitation analysis. Type of series: cell-based.
For series [3] the target is unchanged. The series is described as follows: Inhibition of ppGalNAcT2 in human Jurkat cells assessed as reduction in O-GalNAc glycosylation by measuring VVA lectin expression at 40 uM incubated for 48 hrs by Western blot analysis. Type of series: cell-based. For orientation: In western blotting, separated proteins are transferred to a membrane and probed.
The species entered for another series is Homo sapiens. The series is described as follows: Ratio of IC50 for IC50 for human recombinant FLAG-tagged ppGalNAcT2 W282A mutant to IC50 for human recombinant FLAG-tagged ppGalNAcT2.
Series [4] concerns the target T1, Polypeptide N-acetylgalactosaminyltransferase 2. Description: Inhibition of ppGalNAcT2 in human SW480 cells assessed as reduction in O-GalNAc glycosylation by measuring VVA lectin expression at 40 uM incubated for 48 hrs by Western blot analysis. The format is cell-based.
The target is the same in series [5]. The series is described as follows: Inhibition of catalytic activity of human recombinant FLAG-tagged ppGalNAcT2 expressed in HEK293T cells and using 5-FAM labelled-EA2 peptide as substrate incubated for 30 mins by HPLC-based enzyme assay.
The target in series [6] is T2, Polypeptide N-acetylgalactosaminyltransferase 6 (Homo sapiens, UniProt Q8NCL4).
T2 sequence (Q8NCL4 whole entry): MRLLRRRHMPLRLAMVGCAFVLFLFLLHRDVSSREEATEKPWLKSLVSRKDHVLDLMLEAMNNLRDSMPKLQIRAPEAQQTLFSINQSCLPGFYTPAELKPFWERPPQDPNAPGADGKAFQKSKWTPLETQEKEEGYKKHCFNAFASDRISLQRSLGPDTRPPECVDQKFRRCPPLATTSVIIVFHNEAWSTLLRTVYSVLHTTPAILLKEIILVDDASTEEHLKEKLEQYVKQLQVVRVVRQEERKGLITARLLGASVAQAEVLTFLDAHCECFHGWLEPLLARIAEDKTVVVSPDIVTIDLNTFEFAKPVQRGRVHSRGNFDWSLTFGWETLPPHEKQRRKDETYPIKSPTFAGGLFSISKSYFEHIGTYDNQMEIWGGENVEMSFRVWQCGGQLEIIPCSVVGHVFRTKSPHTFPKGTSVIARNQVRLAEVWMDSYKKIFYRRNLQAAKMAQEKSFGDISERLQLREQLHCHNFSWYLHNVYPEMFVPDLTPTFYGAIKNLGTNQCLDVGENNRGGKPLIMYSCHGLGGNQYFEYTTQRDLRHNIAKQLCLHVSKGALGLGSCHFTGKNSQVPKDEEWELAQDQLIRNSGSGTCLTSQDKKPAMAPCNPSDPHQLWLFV
Description: Inhibition of catalytic activity of ppGalNAcT6 (unknown origin) using EA2 peptide as substrate incubated for 30 mins by HPLC-based enzyme assay.

The target in series [7] is T3, UDP-N-acetylglucosamine--peptide N-acetylglucosaminyltransferase 110 kDa subunit (Homo sapiens, UniProt O15294).
T3 sequence (O15294 whole entry): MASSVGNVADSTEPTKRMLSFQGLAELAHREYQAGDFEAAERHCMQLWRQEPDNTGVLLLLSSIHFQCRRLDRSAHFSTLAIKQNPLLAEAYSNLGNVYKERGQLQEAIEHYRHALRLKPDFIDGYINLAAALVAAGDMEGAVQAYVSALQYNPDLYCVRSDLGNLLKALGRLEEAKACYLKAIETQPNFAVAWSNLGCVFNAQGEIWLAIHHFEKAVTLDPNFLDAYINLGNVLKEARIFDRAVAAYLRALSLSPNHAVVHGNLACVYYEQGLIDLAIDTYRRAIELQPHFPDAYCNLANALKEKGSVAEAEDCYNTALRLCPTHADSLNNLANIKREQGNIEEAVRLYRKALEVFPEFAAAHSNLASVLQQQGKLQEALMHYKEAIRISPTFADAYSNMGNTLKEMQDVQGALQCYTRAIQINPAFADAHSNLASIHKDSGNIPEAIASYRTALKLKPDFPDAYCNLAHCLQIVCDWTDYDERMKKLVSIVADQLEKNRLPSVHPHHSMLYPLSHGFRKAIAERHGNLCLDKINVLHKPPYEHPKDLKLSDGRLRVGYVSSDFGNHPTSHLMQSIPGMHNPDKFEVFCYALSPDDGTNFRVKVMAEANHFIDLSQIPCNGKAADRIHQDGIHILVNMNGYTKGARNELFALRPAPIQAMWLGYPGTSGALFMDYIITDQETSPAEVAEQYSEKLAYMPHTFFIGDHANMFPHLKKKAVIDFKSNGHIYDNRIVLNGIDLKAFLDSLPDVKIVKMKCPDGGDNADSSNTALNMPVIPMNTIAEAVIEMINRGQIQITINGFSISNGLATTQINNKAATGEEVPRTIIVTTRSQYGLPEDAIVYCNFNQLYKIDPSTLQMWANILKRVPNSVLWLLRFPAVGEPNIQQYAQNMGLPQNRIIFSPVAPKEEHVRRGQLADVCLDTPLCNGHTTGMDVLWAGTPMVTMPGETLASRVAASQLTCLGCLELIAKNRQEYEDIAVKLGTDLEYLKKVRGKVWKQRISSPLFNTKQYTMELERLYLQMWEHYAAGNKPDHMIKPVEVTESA
The series is described as follows: Inhibition of catalytic activity of OGT (unknown origin) using EA2 peptide as substrate incubated for 30 mins by HPLC-based enzyme assay.

In series [8] the target is T1, Polypeptide N-acetylgalactosaminyltransferase 2. The series is described as follows: Inhibition of ppGalNAcT2 in human RKO cells assessed as reduction in O-GalNAc glycosylation by measuring VVA lectin expression at 40 uM incubated for 48 hrs by Western blot analysis. The format is cell-based.

T1 sequence (Q10471 whole entry): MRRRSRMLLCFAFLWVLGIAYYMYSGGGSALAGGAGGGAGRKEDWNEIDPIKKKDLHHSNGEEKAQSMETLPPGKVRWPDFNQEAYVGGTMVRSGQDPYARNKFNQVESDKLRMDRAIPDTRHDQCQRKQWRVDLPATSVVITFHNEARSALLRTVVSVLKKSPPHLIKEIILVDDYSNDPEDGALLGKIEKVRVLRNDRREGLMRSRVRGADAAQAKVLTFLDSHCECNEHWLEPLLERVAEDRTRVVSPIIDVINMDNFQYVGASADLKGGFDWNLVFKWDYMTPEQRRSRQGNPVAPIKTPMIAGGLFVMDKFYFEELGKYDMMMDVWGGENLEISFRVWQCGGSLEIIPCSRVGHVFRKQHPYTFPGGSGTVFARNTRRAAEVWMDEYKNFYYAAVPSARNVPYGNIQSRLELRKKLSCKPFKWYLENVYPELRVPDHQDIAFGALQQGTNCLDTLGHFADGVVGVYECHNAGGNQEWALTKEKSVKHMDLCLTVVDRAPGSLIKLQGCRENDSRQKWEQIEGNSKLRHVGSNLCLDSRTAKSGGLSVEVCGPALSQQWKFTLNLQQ

On to `O=c1oc2c(O)c(O)ccc2c2cc(O)c(O)cc12`, for which, in the series with HT-29, the Activity result is “Non-Toxic”. The koff in series [1] is reported as 1.04 ×10⁻³ /s. Moreover, the inhibition result in series [2], in series [3], in series [4] and in series [8] was “Active” each time. Moreover, the Ratio IC50 in the series listed under Homo sapiens turned out to be 4. In addition, the IC50 in [5] was 760 nM; in series [6], 1830 nM; in [7] it was greater than 100000 nM.

Usually IC50 stands for the concentration that gives 50% inhibition.
